Paper PMC11551755, “Structure-based discovery of first inhibitors targeting the helicase activity of human PIF1” (Nucleic Acids Research, 2024)

Target: T1, hPIF1HD V258A (Homo sapiens, UniProt Q9H611, V258A)
T1 construct: The human PIF1 helicase domain and mutants (hPIF1HD, residues 206–620); hexa-histidine tag (N, cleaved yes); made in house; host or cells: ArcticExpress BL21(DE3) E. coli (Agilent Technologies)
T1 sequence (Q9H611 206-620 V258A): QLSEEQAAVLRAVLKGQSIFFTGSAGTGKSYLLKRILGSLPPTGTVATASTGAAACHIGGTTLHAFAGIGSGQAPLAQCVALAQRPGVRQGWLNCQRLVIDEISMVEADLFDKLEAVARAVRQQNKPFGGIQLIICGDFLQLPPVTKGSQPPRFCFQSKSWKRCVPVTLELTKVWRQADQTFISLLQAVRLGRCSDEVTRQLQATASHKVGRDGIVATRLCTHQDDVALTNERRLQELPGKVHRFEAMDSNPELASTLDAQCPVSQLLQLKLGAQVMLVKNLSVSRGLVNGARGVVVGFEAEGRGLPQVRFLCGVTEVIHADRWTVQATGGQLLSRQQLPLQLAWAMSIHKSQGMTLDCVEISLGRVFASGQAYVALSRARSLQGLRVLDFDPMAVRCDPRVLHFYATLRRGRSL
Assay: ssDNA d(T)55 binding assay (EMSA), hPIF1HD V258A variant
Conditions: 0.25 nM d(T)55, 2 nM protein, 5 mM AMP-PNP, 0.0078–2 mM compound; read-out: IC50 for inhibition of ssDNA binding, V258A
Method: DNA binding of hPIF1HD was assayed using a ^32P-5′ end-labelled oligo d(T)55 substrate (0.25 nM), under the same buffer conditions described for helicase assays, but with AMP-PNP instead of ATP. Reaction products were resolved on 5% poly-acrylamide gels (29:1 acrylamide:bis-acrylamide) using 0.25× TBE running buffer ([19],[28]). Gels were processed and reaction products quantified by phosphorimaging and IC50 values determined as described above.
In hPIF1HD/AMP-PNP/1 there are no direct hydrogen bonds between amino acid side chains and 1, however, Val 258 from domain 1A is making van der Waals interaction (<3.8 Å) with the amide group at one end of the molecule (Figure 1). From the structural data, we reasoned that substitution of the Val 258 with alanine (V258A) would increase the size of the binding pocket and its accessibility to ligand, while substitution with leucine (V258L) would decrease pocket size and possibly instigate a clash with Lys 556, disrupting interactions with compound 1 or derivatives. Accordingly, we purified hPIF1HD V258A and V258L variant forms and analysed ssDNA d(T)55 binding in the presence of SMIs, using EMSA as above.
Supplementary Figure 12. hPIF1HD variants V258A and V258L ssDNA binding IC50 determination by EMSA with selected SMIs. All binding reactions were assembled under helicase reaction conditions but with 0.25 nM radiolabelled oligo d(T)55, and 5 mM AMP-PNP. (A) DNA binding activity of wild type and mutant proteins was assessed by EMSA without inhibitors. […] 1D: Wild type (WT), V258A and V258L, not determined. 2: WT, 224 ± […]; V258A, 103 ± 31 µM; V258L, 304 ± 88 µM. 5: WT, 198 ± 54 µM; V258A, 79.2 ± 27 µM; V258L, 414 ± 45 µM. 6: WT, 722 ± 194 µM; V258A, 295 ± 116 µM; V258L, 1010 ± 282 µM. 10: WT, 224 ±59 µM; V258A, 152 ± 42 µM; V258L, 378 ± 99 µM. 11: WT, 284 ± 110 µM; V258A, 151 ± 51 µM; V258L, 551 ± 215 µM.

SMILES	IC50
CC(=O)c1ccc(-c2csc(N)n2)cc1 [Compound 2]	103 ± 31 µM
N#Cc1ccc(-c2csc(N)n2)cc1 [Compound 5]	79.2 ± 27 µM
Nc1nc(-c2ccc(C(=O)c3ccccc3)cc2)cs1 [Compound 6]	295 ± 116 µM
CC(=O)Nc1ccc(-c2csc(N)n2)cc1-c1ccc(C)cc1 [Compound 10]	152 ± 42 µM
CC(=O)Nc1ccc(-c2csc(N)n2)cc1C1=CCNCC1 [Compound 11]	151 ± 51 µM
